Consider five compounds from patent US10793535B2, “Heterocyclic glutaminase inhibitors” (Calithera Biosciences, Inc., priority 2012, dated 2020).

In one data set the test system is Caco-2 cell monolayers. The data set can be described thus: Caco-2 permeability assay. The class given is in vitro ADME, human. The text has this: Caco-2 cells are commonly used in a confluent monolayer on a cell culture insert filter. When cultured in this format and under specific conditions, the cells become differentiated and polarized such that their phenotype, morphologically and functionally resembles the enterocytes lining the small intestine. The cell monolayer provides a physical and biochemical barrier to the passage of small molecules, and is widely used across the pharmaceutical industry as an in vitro model of the human small intestinal mucosa to predict the absorption of orally administered drugs (Hidalgo et al., Gastroenterology, 1989; Artursson, J. Pharm. Sci., 1990). The correlation between the in vitro apparent permeability (P ? app) across Caco-2 monolayers and the in vivo absorption is well established (Artursson et al., Biochem. Biophys. Res. Comm., 1991).
The present assay was used to determine the bidirectional permeability of the compounds of the invention through Caco-2 cell monolayers. Caco-2 cells were grown in confluent monolayers where the media of both the apical (A) and basolateral (B) sides were at pH 7.4. Compounds were dosed at 1 μM in the presence of 200 μM Lucifer Yellow, on the apical side (A→B) or the basolateral side (B→A) for assessment, in duplicate.
The absorption potential of compounds were classified as either Low (P-app<1×10^−6 cm/s) or High (P-app>1×10^−6 cm/s).
Background: Passage across Caco-2 layers is used to estimate intestinal permeability.

The next data set concerns P493-6 (myc "on") cells. The data set can be described thus: Cell proliferation assay. The class given is cell-based. The conditions noted are these: read-out: Cell prolif P493 72 h IC50. How it is done:
P493-6 (myc “on”) cells were maintained in growth media (RPMI-1640, 10% FBS, 2 mM glutamine, 100 units/ml Penicillin and 100 μg/ml streptomycin) at 37° C. with 5% CO2. For compound assay, P493-6 cells were plated in 96-well V-bottom plates on the day of compound addition in 50 μl of growth media at a cell density of 200,000 cells/ml (10,000 cells/well). Compounds were serially diluted in 100% DMSO at 200-times the final concentration. Compounds were diluted 100-fold into growth media and then 50 μl of this mixture was added to cell plates making the final concentration of DMSO 0.5%. Cells were incubated with compound for 72 hrs at 37° C. with 5% CO2 and analyzed for antiproliferative effects either by Cell Titer Glo (Promega) or FACS analysis using the Viacount (Millipore) kit on the Guava instrument.

A short description of data set [1]: Pharmacokinetic studies in mice. The class given is in vivo. The conditions noted are these: female, CD-1, mouse, plasma, po. How it is done: For PK studies performed in mice, female CD-1 mice, age 5-8 weeks, were dosed orally by gavage (10 mL/kg volume) with test compounds. At pre-determined time-points (e.g. 1, 3, and 6 hrs) post-dosing, groups of three mice were sacrificed by CO2 inhalation and blood collected via cardiac puncture. Blood samples were placed into K2 EDTA coated tubes and kept on ice. Samples were centrifuged at 2000×g for 10 minutes at 4° C. and plasma isolated. Plasma was stored at ˜70° C. until bioanalytical analysis.
(§1) The plasma samples were analyzed using Liquid chromatography tandem mass spectrometry (LC/MS/MS) methods. Frozen plasma samples were thawed on ice or room temperature. Aliquotes of study plasma samples and calibration samples prepared in the same matrix as the study samples were quenched in an organic solvent (methanol, acetonitrole or DMF) containing an internal standard. The mixtures were then centrifuged and filtered and the filtrates were injected to an LC/MS/MS system to determine concentrations of test compounds.

Data set [2] is described as follows: Pharmacokinetic studies in rats. The class given is in vivo. The conditions noted are these: female, Sprague-Dawley, plasma, Rat. How it is done:
For PK studies performed in rats, groups of three female Sprague-Dawley Rats, age 7-10 weeks, with jugular vein cannulae were dosed orally by gavage (5-10 mL/kg) with test compounds. Serial blood samples were collected via the jugular vein cannulae at multiple time-points pre and post-dose. Blood samples were placed into K2 EDTA coated tubes on kept on ice. Samples were centrifuged at 2500×g for 10 minutes at 4° C. and plasma isolated. Plasma was stored at ˜70° C. until bioanalytical analysis.
as §1

For data set [3], the system named is multiple myeloma cells (MM1S cells, RPMI-8226 cells). As to the kind of experiment: Treatment of multiple myeloma cells with a combination of drugs. The conditions noted are these: 72 hours, Cell Titer Glo, combination indices (Calcusyn). The class given is cell-based. How it is done: At the end of the incubation, cell viability was measured using Cell Titer Glo as per manufacturer's protocol (Promega, Madison, Wis.). Measured values for compound-treated cells were normalized to DMSO-treated cells and data is reported as a cell survival ratio with a value of 1 (one) corresponding to maximum cell survival and a value of 0 (zero) corresponding to no cell survival. Cell survival ratios for all compound treatments are represented as bar graphs. Combination indices were calculated using the Calcusyn program (biosoft.com) and reported for individual mixtures of compound 670 and pomalidomide [POM] (panels A &C) and individual mixtures of compound 670 and dexamethasone [DEX] (panels B & D). Compound mixtures that produced a synergistic anti-tumor activity are highlighted.

The test system of data set [4] is H2122 lung adenocarcinoma xenograft. The data set can be described thus: Lung adenocarcinoma xenograft efficacy study. The class given is in vivo, mouse. As to conditions: 200 mg/kg orally BID for 23 days. How it is done:
Female scid/beige mice (n=20) age 6-8 weeks were implanted subcutaneously with 1×10^7 H2122 lung adenocarcinoma cells per mouse suspended in PBS. […] For both groups, dosing was initiated 24 hours post-implant and continued orally BID for 23 days. Tumors were measured with calipers three times per week and tumor volume calculated using the formula tumor volume (mm^3)=(a×b^2/2) where ‘b’ is the smallest diameter and ‘a’ is the largest perpendicular diameter. **P-value <0.01 (Two-sided T-test).

The test system of data set [5] is RPMI-8226 multiple myeloma xenograft. As to the kind of experiment: Multiple myeloma xenograft study. As to conditions: RPMI-8226 xenograft, 200 mg/kg orally BID for 28 days. The class given is in vivo, mouse. How it is done: Female CB.17 SCID mice (n=20) age 8-12 weeks were implanted subcutaneously with 1×10^7 RPMI-8226 myeloma cells per mouse mixed 1:1 with Matrigel. […] For both groups, dosing was initiated when tumors reached a volume of 100-150 mm^3 and continued orally BID for 28 days. Tumors were measured with calipers two times per week and tumor volume calculated using the formula tumor volume (mm^3)=(a×b^2/2) where ‘b’ is the smallest diameter and ‘a’ is the largest perpendicular diameter. **P-value <0.01 (Two-sided T-test).

[6] abbreviates: 50 mg/kg, 50 mg/kg oral, Eudragit L100-55 solid dispersion, Suspension.
[7] abbreviates: 50 mg/kg, 50 mg/kg oral, 0.5% CMC/0.1% PS80, Suspension.
Where [8] appears, read: 50 mg/kg, 50 mg/kg oral, Capryol PGMC, Suspension.
The mark [9] stands for this setting: 50 mg/kg, 50 mg/kg oral, 2% NMP/98% Gelucire, Solution.
Setting [10] is: 50 mg/kg oral, Eudragit L100-55 solid dispersion, Suspension.
The mark [11] stands for this setting: 50 mg/kg, 50 mg/kg oral, 1% NMP/99% Gelucire, Solution.
Where [12] appears, read: 25 mg/kg oral, 20% HPBCD/10 mM Citrate pH 2.0, Solution.
Where [13] appears, read: 80 mg/kg oral, 65% HPBCD/10 mM Citrate pH 2.6, Solution.
[14] abbreviates: 250 mg/kg oral, 40% HPBCD/10 mM Citrate pH 2.2, Solution.
The mark [15] stands for this setting: 500 mg/kg oral, 40% HPBCD/10 mM Citrate pH 2.2, Solution.
[16] abbreviates: 100 mg/kg, 100 mg/kg oral, 25% HPBCD/10 mM Citrate pH 2.2, Solution.
[17] abbreviates: 200 mg/kg, 200 mg/kg oral, 25% HPBCD/10 mM Citrate pH 2.2, Solution.

pIC50: −log10 of the molar value. Where two headings read alike, the source gives them in different places.

The pIC50 is −log10 of the IC50, conventionally taken in molar units. As usually defined, the Cmax is the maximum level reached in the sampled fluid or tissue. What is called Tmax is the time at which the peak concentration occurs. Turning to `O=C(Cc1ccccc1)Nc1ccc(CCCCc2nnc(NC(=O)Cc3ccccc3)s2)nn1` [Compound 295], in the data set with Caco-2 cell monolayers, the “Significant Efflux” value is recorded as “Yes (efflux ratios being significant when greater than or equal to 3 when the Papp (B→A) was greater than or equal to 1×10^−6 cm/s)”. The negative-log IC50 (pIC50) in the data set with P493-6 (myc "on") cells (P493-6, 72 h) was 7.41. Besides, in data set [1] (setting [6]), the concentration peaked (Cmax) at 0.02 µM and the Tmax worked out at 6 h.

`O=C(Cc1ccccc1)Nc1ccc(CCCCc2nnc(NC(=O)C(O)c3cccc(Cl)c3)s2)nn1` (stereo not shown) [Compound 318]: the “Significant Efflux” value in the data set with Caco-2 cell monolayers is “Yes (efflux ratios being significant when greater than or equal to 3 when the Papp (B→A) was greater than or equal to 1×10^−6 cm/s)”. Besides, in the data set with P493-6 (myc "on") cells (P493-6, 72 h), the pIC50 is 7.77. Also, in data set [1] (setting [7]), the concentration peaked (Cmax) at 0.01 µM and the Tmax worked out at 1 h. Further, in data set [1] (setting [8]), the concentration peaked (Cmax) at 0.08 µM and the Tmax was determined as 3 h.

Turning to `O=C(Cc1cccc(OC(F)(F)F)c1)Nc1ccc(CCCCc2nnc(NC(=O)C(O)c3cccc(Cl)c3)s2)nn1` (stereo not shown) [Compound 447], in the data set with Caco-2 cell monolayers, the “Significant Efflux” value is recorded as “Yes (efflux ratios being significant when greater than or equal to 3 when the Papp (B→A) was greater than or equal to 1×10^−6 cm/s)”. The pIC50 with P493-6 (myc "on") cells (P493-6, 72 h) is 7.80. Besides, in data set [1] (setting [9]), the highest level (Cmax) was 1.13 µM and the time of peak concentration (Tmax) amounted to 1 h.

With `O=C(Cc1cccc(OC(F)(F)F)c1)Nc1ccc(CCCCc2nnc(NC(=O)Cc3ccccc3)s2)nn1` [Compound 585], the “Significant Efflux” value in the data set with Caco-2 cell monolayers is “Yes (efflux ratios being significant when greater than or equal to 3 when the Papp (B→A) was greater than or equal to 1×10^−6 cm/s)”. The highest concentration (Cmax) was determined as 1.15 µM in data set [2] (setting [10]), 5.16 µM in data set [1] (setting [11]) and 0.93 µM in data set [1] (setting [6]). Besides, the Tmax in data set [2] (setting [10]) was 2 h; in data set [1] (setting [11]) it was 1 h; in data set [1] (setting [6]), 3 h. In addition, the pIC50 in the data set on P493-6 (myc "on") cells (P493-6, 72 h) was 7.15.

In the case of `O=C(Cc1cccc(OC(F)(F)F)c1)Nc1ccc(CCCCc2nnc(NC(=O)Cc3ccccn3)s2)nn1` [Compound 670], the “Significant Efflux” value with Caco-2 cell monolayers was “Yes (efflux ratios being significant when greater than or equal to 3 when the Papp (B→A) was greater than or equal to 1×10^−6 cm/s)”. Further, the Cmax is 4.4 µM in data set [2] (setting [12]); 12.5 µM in data set [2] (setting [13]); 9.9 µM in data set [2] (setting [14]); 15.3 µM in data set [2] (setting [15]); 5.75 µM in data set [1] (setting [16]); 5.05 µM in data set [1] (setting [17]). The Tmax is 1 h in data set [2] (setting [12]); 1 h in data set [2] (setting [13]); 24 h in data set [2] (setting [14]); 2 h in data set [2] (setting [15]); 1 h in data set [1] (setting [16]); 1 h in data set [1] (setting [17]). For the same compound, the “anti-tumor effect in combination with dexamethasone” value in data set [3] is given as “synergizes”. In data set [3], the “anti-tumor effect in combination with pomalidomide” value is on record as “synergizes”. In addition, the tumor size entry in data set [4] and in data set [5] was “reduced tumor size” in each case. The pIC50 with P493-6 (myc "on") cells (72 h) is 7.52.
